Calls of active or inactive are those of the source.
Columns and labels:
[1] = target: Peroxisome proliferator-activated receptor gamma/Nuclear receptor corepressor 2 (Homo sapiens, UniProt P37231+Q9Y618); assay type: functional
[2] = Luminescence Cell-Based Dose Response HTS to Identify Inhibitors of 5'UTR Stem-Loop Driven Prion Protein mRNA Translation in H4 Neuroglioblastoma Cells. [Related pubchem assays: 1827 (Project Summary), 1813 (Primary HTS)]; assay type: functional
[3] = target: Photoreceptor-specific nuclear receptor (Homo sapiens, UniProt Q9Y5X4); assay type: functional;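 further: potency for compounds that break the NR2E3 corepressor complex and count as activators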
[4] = inhibitors of SNCA 5'UTR-driven reporter translation, confirmation, H4 neuroglioma cells, luminescence (AID 1988); assay type: functional, cell-based
[5] = inhibitors of firefly luciferase expression or activity, dose response, H4 neuroglioma cells, luminescence (AID 1990); assay type: functional, cell-based
Galanin receptor type 2 = Galanin receptor type 2 (Homo sapiens, UniProt O43603); assay: Dose Response cell-based high-throughput screening assay to identify agonists of galanin receptor 2 (GALR2). [Related pubchem assays: 864 ]; assay type: functional
Streptococcus [6] = assay: Luminescence Microorganism-Based Dose Response Follow up to Identify Compounds Cytotoxic to Streptococcus. [Related pubchem assays: 1677 (Project Summary), 1915, 1914, 1902 (Retest at Dose), 1900 (Counter Screen), 1662 (Primary HTS)]; assay type: functional, organism-based
Streptococcus [7] = assay: Group A Streptococcus viability loss, dose response, counter-screen for streptokinase expression inhibitor project, luminescence, BacTiterGlo (AID 1915); assay type: functional, organism-based;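 further: potency for reduction of bacterial viability or growth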
[8] = tested on: Streptococcus sp. 'group A'; assay: growth inhibition of control SK(-) GAS strain, dose response, counter-screen for streptokinase expression inhibitor project, luminescence, kanamycin, BacTiterGlo, confirmation (AID 1900); assay type: functional, organism-based
Streptokinase A = target: T1, Streptokinase A (Streptococcus pyogenes serotype M1, UniProt P10520); assay: S. pyogenes streptokinase expression inhibitors, potency, dose response, plasminogen activation absorbance, OD405 (AID 1914); assay type: functional, Streptococcus pyogenes M1 GAS;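 further: secreted streptokinase activity via plasminogen activation per viability signal from cell pellet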
T1 sequence (P10520 whole entry): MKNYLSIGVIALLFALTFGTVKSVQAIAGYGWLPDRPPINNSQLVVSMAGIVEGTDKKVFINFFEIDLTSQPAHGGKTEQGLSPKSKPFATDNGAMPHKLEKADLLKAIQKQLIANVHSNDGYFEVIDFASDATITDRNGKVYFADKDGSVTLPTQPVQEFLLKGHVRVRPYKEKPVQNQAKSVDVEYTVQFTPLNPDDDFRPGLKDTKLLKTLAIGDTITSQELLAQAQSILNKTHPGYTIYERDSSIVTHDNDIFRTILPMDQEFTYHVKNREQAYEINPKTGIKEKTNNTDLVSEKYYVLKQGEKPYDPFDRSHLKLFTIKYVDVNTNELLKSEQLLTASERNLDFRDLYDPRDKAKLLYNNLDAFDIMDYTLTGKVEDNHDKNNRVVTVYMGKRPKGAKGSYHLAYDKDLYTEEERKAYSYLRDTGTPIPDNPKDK

[9] = target: T2, Neuropeptides B/W receptor type 1 (Homo sapiens, UniProt P48145); assay: Fluorescence-based dose response cell-based high throughput screening assay to identify antagonists of the G-protein coupled receptor 7 (GPR7). [Related pubchem assays: 1952 (Screening assay (GPR7 antagonists).), 1880 (Summary AID.)]; assay type: functional
T2 sequence (P48145 whole entry): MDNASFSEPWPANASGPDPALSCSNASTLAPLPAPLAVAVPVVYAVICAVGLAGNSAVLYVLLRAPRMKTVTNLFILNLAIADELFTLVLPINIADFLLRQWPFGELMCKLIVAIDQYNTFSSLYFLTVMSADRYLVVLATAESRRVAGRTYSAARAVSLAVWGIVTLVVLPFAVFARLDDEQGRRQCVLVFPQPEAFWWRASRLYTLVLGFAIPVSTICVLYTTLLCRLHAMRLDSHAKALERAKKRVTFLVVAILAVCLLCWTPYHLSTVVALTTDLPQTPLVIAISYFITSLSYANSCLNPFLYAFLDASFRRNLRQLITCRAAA

[10] = target: Melanin-concentrating hormone receptor 1 (Homo sapiens, UniProt Q99705); assay: Fluorescence-based counterscreen for antagonists of the G-protein coupled receptor 7 (GPR7): cell-based high throughput dose response assay to identify antagonists of the melanin-concentrating hormone receptor 1 (MCHR1).; assay type: functional
[11] = target: T3, Polyadenylate-binding protein 1 (Homo sapiens, UniProt P11940); assay: PABP inhibition in translation initiation, SAR follow-up (AID 435018); assay type: functional
[12] = target: T3, Polyadenylate-binding protein 1; assay: PABP poly(A) RNA binding inhibitors, primary screen, biochemical, fluorescence polarization, uHTS (AID 2014)
[13] = target: T4, Eukaryotic translation initiation factor 4H (Homo sapiens, UniProt Q15056); assay: human eIF4H binding inhibitors, primary screen, translation initiation inhibitor project, biochemical, uHTS, fluorescence polarization (AID 2012)
[14] = target: T4, Eukaryotic translation initiation factor 4H; assay: eIF4H inhibition in translation initiation, SAR follow-up (AID 435011); assay type: functional
Interleukin-8 = Interleukin-8 (Homo sapiens, UniProt P10145); assay: SAR analysis of tumor necrosis factor alpha (TNF-alpha) induced IL-8 secretion in MCF-7/NOD1 cells. [Related pubchem assays (depositor defined):AID1575, AID2250, AID2260]; assay type: functional, cell-based
HEK293 = assay: cells; conditions: Homo sapiens;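 further: cells exposed to compound for 14 hours overnight before viability readout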
Tumor necrosis factor = Tumor necrosis factor (Homo sapiens, UniProt P01375); assay: TNFa-triggered NF-kB activation inhibitors, SAR follow-up, cell-based, revised (AID 2337); assay type: functional
Staphylococcus aureus = assay: Inhibitors of Bacterial Quorum Sensing Structure Activity Relationship (SAR) Analysis: Dose Response Assay. [Related pubchem assays: 700, 527 ]; assay type: functional, organism-based
Protein Rev [15] = target: Protein Rev (Human immunodeficiency virus type 1 group M subtype B (isolate HXB2)(HIV-1), UniProt P04618); assay: inhibitors of Rev binding to RRE RNA, dose response, biochemical, fluorescence polarization, HIV-1 (AID 434976); set-up: species or system Human immunodeficiency virus 1
[16] = target: Female germline-specific tumor suppressor gld-1 (Caenorhabditis elegans, UniProt Q17339); assay: inhibitors of GLD-1 binding to TGE RNA, dose response, biochemical, fluorescence polarization, C. elegans (AID 2802);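 further: fluorescence polarization of labeled TGE RNA bound by purified gld-1 protein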
Protein Rev [17] = target: Protein Rev (Human immunodeficiency virus type 1 group M subtype B (isolate WMJ22)(HIV-1), UniProt P05866); assay: HIV-1 Rev-RRE RNA binding disruptors, dose response, biochemical, protein-RNA interaction (AID 842); set-up: species or system Human immunodeficiency virus 1
[18] = Vero cell cytotoxicity, dose response, cytotoxicity control for Vif-APOBEC3G degradation inhibitor project, Vero cells (AID 1117358); assay type: functional; conditions: Human immunodeficiency virus 1, Vero
Large T antigen = Large T antigen (Simian virus 40, UniProt P03070); assay type: functional, Betapolyomavirus macacae;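 further: Confirmatory-stage PubChem screen for compounds that inhibit SV40 T antigen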
Estrogen receptor beta [19] = target: T5, Estrogen receptor beta (Homo sapiens, UniProt Q92731); assay: ERβ–SRC-3 coactivator interaction inhibitors, confirmation, orthogonal assay, biochemical, ELISA, streptavidin-HRP readout (AID 1060)
Procathepsin L = Procathepsin L (Homo sapiens, UniProt P07711)
Aspartyl aminopeptidase = Aspartyl aminopeptidase (Plasmodium falciparum 3D7, UniProt Q8I2J3)
Bcl-2-like protein 10 = target: T6, Bcl-2-like protein 10 (Homo sapiens, UniProt Q9HD36); assay: displacers of TR3 peptide from Bcl-B, primary screen, selectivity assay for Bfl-1 inhibitor project, biochemical, fluorescence polarization, FITC-TR3 peptide (AID 748);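 further: fluorescence polarization from a fluorescein-labelled TR3 peptide binding purified Bcl-B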
T6 sequence (Q9HD36 whole entry): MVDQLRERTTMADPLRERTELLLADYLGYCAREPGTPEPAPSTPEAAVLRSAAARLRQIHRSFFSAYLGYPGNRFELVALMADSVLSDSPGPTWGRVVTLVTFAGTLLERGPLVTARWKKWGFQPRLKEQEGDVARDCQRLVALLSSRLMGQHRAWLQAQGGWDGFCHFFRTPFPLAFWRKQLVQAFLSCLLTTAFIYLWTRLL

Leucine aminopeptidase = target: T7, Leucine aminopeptidase (Plasmodium falciparum 3D7, UniProt Q8IL11); assay: P. falciparum M17LAP inhibitors, primary screen, biochemical, fluorogenic H-Leu-NHMec substrate, 1536-well (AID 1619); assay type: functional
T7 sequence (Q8IL11 whole entry): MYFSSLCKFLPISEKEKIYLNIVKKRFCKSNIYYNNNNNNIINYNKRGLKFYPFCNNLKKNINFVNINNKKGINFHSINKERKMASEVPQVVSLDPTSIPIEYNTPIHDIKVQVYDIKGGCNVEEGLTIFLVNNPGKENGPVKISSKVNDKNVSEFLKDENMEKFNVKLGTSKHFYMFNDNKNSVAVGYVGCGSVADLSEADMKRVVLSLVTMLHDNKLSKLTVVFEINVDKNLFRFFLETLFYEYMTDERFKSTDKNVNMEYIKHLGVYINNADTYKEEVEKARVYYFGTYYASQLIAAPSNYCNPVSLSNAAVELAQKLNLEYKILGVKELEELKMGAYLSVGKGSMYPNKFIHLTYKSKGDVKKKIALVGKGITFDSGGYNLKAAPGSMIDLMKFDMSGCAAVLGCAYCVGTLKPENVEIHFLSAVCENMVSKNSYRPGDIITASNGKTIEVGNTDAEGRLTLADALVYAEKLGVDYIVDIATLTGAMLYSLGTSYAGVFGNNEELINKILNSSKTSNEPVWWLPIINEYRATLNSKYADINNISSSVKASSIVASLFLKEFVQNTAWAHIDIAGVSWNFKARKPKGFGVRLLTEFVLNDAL

Estrogen receptor beta [20] = target: T5, Estrogen receptor beta

T5 sequence (Q92731 whole entry): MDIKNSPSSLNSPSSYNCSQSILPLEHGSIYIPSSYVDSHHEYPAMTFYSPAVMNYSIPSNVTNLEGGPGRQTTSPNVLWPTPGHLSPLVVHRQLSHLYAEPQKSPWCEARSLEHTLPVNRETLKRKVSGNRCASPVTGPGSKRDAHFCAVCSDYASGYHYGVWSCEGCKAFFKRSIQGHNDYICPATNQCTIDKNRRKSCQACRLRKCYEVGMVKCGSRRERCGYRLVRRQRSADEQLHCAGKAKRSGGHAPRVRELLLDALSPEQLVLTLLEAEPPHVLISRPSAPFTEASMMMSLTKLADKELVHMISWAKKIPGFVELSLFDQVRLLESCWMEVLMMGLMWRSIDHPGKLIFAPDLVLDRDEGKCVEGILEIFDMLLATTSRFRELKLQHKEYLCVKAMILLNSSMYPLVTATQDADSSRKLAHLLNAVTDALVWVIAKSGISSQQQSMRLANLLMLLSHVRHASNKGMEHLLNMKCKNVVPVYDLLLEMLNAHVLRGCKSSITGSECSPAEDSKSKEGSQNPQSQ
T3 sequence (P11940 whole entry): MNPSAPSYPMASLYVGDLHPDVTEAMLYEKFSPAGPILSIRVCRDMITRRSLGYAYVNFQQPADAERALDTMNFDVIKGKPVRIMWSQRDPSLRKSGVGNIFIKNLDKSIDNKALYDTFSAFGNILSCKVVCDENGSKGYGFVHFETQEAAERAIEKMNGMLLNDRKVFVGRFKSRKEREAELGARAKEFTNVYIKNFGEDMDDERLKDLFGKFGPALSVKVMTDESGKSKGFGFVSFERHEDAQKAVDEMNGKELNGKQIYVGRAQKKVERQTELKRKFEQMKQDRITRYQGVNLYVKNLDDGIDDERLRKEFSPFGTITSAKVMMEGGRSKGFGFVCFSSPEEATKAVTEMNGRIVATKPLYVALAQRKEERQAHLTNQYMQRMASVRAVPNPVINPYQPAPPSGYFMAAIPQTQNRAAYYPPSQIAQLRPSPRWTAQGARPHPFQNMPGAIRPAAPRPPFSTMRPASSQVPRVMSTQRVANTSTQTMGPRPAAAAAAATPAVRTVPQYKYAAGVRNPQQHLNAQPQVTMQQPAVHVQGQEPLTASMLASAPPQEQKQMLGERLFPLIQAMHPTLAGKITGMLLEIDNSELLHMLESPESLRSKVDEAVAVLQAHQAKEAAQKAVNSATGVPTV
Chain of Protein Rev (Human immunodeficiency virus type 1 group M subtype B (isolate WMJ22)(HIV-1), UniProt P05866) (P05866 whole entry): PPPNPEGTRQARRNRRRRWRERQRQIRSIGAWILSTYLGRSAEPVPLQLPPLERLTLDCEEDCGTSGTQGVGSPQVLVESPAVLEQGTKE
Chain of Female germline-specific tumor suppressor gld-1 (Q17339 whole entry): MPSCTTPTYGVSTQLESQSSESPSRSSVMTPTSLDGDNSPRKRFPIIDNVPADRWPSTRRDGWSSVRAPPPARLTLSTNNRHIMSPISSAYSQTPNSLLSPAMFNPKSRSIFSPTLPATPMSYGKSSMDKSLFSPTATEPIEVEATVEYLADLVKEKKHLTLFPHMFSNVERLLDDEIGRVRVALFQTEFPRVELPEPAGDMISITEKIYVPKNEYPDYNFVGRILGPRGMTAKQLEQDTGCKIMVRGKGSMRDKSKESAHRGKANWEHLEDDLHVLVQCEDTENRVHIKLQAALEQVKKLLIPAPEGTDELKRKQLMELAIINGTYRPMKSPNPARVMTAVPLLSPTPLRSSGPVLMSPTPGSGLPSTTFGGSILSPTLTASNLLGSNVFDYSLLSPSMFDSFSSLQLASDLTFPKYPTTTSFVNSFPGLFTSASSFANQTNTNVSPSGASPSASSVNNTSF
Chain of Photoreceptor-specific nuclear receptor (Q9Y5X4 whole entry): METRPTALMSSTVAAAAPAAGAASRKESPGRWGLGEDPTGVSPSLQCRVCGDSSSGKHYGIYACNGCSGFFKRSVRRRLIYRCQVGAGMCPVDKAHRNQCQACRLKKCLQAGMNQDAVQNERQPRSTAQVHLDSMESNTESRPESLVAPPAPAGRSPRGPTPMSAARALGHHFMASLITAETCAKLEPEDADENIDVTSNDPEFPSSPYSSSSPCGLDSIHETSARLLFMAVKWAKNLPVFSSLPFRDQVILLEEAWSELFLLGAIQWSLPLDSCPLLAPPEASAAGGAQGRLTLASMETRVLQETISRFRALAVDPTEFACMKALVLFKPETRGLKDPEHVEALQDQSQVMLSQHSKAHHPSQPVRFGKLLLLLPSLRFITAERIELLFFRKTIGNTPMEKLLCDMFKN
Chain of Aspartyl aminopeptidase (Q8I2J3 whole entry): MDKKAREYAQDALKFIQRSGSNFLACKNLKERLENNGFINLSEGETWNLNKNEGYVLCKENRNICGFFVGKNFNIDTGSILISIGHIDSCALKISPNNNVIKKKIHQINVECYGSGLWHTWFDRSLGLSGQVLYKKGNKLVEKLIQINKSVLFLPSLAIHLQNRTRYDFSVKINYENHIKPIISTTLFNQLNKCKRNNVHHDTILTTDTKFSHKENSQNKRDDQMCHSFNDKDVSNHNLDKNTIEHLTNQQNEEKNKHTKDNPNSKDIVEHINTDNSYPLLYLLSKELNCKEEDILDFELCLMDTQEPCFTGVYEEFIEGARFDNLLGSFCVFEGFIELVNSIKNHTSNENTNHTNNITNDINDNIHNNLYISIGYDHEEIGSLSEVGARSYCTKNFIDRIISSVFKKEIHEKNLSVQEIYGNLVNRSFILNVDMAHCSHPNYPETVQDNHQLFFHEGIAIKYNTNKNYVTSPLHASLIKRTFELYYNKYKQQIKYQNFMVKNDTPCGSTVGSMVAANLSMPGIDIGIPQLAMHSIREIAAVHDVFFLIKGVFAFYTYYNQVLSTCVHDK
Chain of Protein Rev (Human immunodeficiency virus type 1 group M subtype B (isolate HXB2)(HIV-1), UniProt P04618) (P04618 whole entry): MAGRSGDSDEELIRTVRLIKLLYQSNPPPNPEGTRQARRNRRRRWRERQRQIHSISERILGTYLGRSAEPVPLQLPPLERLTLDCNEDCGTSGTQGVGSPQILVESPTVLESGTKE
Chain of Tumor necrosis factor (P01375 whole entry): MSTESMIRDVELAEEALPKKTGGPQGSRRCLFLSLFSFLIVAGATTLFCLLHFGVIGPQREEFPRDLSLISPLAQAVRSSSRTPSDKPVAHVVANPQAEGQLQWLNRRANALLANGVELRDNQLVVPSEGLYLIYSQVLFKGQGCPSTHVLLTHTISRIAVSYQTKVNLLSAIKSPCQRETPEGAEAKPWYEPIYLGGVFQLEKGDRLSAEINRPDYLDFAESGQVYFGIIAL
Chain of Procathepsin L (P07711 whole entry): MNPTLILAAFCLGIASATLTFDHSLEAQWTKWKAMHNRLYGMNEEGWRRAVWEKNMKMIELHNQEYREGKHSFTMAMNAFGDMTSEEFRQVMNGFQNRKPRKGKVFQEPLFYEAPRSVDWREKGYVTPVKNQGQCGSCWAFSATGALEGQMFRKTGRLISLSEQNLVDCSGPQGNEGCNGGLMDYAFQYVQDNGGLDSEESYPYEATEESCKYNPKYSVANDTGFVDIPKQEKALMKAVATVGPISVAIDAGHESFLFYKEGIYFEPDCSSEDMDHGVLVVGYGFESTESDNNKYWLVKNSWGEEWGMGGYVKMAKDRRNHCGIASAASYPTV
Chain of Galanin receptor type 2 (O43603 whole entry): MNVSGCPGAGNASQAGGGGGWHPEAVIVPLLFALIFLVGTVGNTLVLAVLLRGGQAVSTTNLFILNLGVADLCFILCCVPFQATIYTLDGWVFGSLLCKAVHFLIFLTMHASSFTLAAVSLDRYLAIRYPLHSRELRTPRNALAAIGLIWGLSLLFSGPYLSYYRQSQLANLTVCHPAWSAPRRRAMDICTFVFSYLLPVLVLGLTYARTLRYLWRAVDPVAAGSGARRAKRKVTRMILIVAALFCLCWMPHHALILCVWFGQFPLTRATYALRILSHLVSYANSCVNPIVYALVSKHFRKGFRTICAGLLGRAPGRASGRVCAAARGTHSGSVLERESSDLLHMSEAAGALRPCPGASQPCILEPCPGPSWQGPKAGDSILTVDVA
Chain of Interleukin-8 (P10145 whole entry): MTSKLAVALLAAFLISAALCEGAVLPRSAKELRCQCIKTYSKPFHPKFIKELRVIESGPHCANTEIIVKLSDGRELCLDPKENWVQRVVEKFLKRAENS
Chain of Large T antigen (P03070 whole entry): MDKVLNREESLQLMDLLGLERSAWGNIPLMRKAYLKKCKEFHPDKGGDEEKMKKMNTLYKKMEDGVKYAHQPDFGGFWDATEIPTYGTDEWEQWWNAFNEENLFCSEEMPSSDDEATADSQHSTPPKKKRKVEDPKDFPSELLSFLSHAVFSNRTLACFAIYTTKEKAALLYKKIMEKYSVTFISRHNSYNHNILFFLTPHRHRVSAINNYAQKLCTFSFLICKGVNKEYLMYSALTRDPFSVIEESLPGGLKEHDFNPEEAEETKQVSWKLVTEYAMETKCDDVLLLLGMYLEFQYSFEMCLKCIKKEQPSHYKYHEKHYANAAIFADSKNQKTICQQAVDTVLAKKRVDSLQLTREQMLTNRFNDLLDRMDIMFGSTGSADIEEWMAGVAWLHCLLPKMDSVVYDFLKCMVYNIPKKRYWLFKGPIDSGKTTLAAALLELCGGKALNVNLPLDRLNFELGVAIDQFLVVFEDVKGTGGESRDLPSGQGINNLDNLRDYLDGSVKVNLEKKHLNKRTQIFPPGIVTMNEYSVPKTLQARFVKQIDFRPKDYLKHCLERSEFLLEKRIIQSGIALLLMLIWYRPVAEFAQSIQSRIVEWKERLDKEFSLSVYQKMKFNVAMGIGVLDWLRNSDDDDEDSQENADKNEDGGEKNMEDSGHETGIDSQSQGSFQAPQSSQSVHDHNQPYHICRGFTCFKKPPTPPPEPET

SMILES: CCOc1ccc(Br)cc1C(=O)Nc1ccc(C(=O)NCC(C)C)cc1
- IC50 [1]: > 39.8 µM (not active)
- EC50 [2]: 18.1 µM (active)
- IC50 [3]: > 39.8 µM (not active)
- EC50 [4]: > 120 µM (not active)
- EC50 [5]: 21.6 µM (active)
- EC50 (Galanin receptor type 2): > 55.7 µM (not active)

SMILES: Cn1c(=O)c2c(nc(SCc3ccccc3)n2Cc2ccc(Cl)cc2)n(C)c1=O
- EC50 (Streptococcus [6]): > 500 µM (not active)
- EC50 (Streptococcus [7]): > 150 µM (not active)
- EC50 [8]: 7.96 µM (active)
- EC50 (Streptokinase A): 10.7 µM (active)

SMILES: COC(=O)C(O)(c1ccc(N(C)C(=O)c2ccc(Cl)c(Cl)c2)cc1)C(F)(F)F (stereo unspecified)
- IC50 [9]: > 14.6 µM (not active)
- IC50 [10]: 15 µM (not active)

SMILES: Cc1ccc(OC(C)C(=O)Nc2ccc3c(c2)n(C)c(=O)n3C)c(C)c1 (stereo unspecified)
- IC50 [11]: 4.39 µM (active)
- IC50 [12]: 16.2 µM (active)
- IC50 [13]: > 100 µM (inactive)
- IC50 [14]: 35 µM (active)

SMILES: Cc1ccc(S(=O)(=O)n2cnc3ccccc32)cc1
- IC50 (Interleukin-8): > 5 µM (inactive)
- IC50 (HEK293): > 20 µM (inactive)
- IC50 (Tumor necrosis factor): > 20 µM (inactive)

SMILES: O=C(O)c1ccccc1Nc1cccc2c1C(=O)c1ccccc1C2=O
- IC50 (Staphylococcus aureus): 1.05 µM (active)

SMILES: CC1CN(C2=Nc3cccc4cccc2c34)CC(C)O1 (stereo unspecified)
- IC50 (Protein Rev [15]): 18.2 µM (not active)
- IC50 [16]: 9.4 µM (active)

SMILES: CCN(CC)CCNC1=NCCn2c1cc1cc(OC)ccc12
- IC50 (Protein Rev [17]): > 79.4 µM (not active)
- CC50 [18]: > 40 µM (active)

SMILES: O=C(CSc1nc(O)c2ccccc2n1)c1ccc(O)c(O)c1
- IC50 (Large T antigen): 10.7 µM (active)
- IC50 (Estrogen receptor beta [19]): 0.337 µM (not active)
- IC50 (Procathepsin L): > 59.6 µM (not active)
- IC50 (Aspartyl aminopeptidase): 1.46 µM (active)
- IC50 (Bcl-2-like protein 10): 23.4 µM (active)
- IC50 (Leucine aminopeptidase): 13 µM (active)
- IC50 (Estrogen receptor beta [20]): 4.62 µM (active)

— ChEMBL document CHEMBL1201862, “PubChem BioAssay data set” (2004)
